Source: US20170121315A1, “HETEROBICYCLICALLY SUBSTITUTED 4-OXOBUTANE ACID DERIVATIVES AND USE THEREOF” (priority 2014, published 2017)

Molecular target: T1, human macrophage elastase (HME/hMMP-12) (Homo sapiens, UniProt P39900)
T1 construct: purchased R&D Systems 917-MP
Test: In vitro HME inhibition test (standard or high-sensitivity)
Format: biochemical
Conditions: in some cases mean values, rounded to two significant figures
Method: The potency of the compounds according to the invention with respect to HME (MMP-12) is determined in an in vitro inhibition test. The HME-mediated amidolytic cleavage of a suitable peptide substrate leads to an increase in fluorescent light therein. The signal intensity of the fluorescent light is directly proportional to the enzyme activity. The active concentration of a test compound at which half the enzyme is inhibited (50% signal intensity of the fluorescent light) is reported as the IC50 value.
In a 384 hole microtiter plate, in a total test volume of 41 μl, the test buffer (0.1 M HEPES pH 7.4, 0.15 M NaCl, 0.03 M CaCl2, 0.004 mM ZnCl2, 0.02 M EDTA, 0.005% Brij®), the enzyme (0.5 nM HME; R&D Systems, 917-MP, autocatalytic activation according to the manufacturer's instructions) and the intramolecularly quenched substrate [5 μM Mca-Pro-Leu-Gly-Leu-Glu-Glu-Ala-Dap(Dnp)-NH2; Bachem, M-2670] are incubated in the absence and presence of the test substance (as a solution in DMSO) at 37° C. for two hours. The fluorescence intensity of the test mixtures is measured (excitation […], emission 393 nm). The IC50 values are ascertained by plotting the fluorescent light intensity against the active ingredient concentration.
In this case, an enzyme concentration ten times lower is used (final concentration, e.g. 0.05 nM) in order to achieve an increased test sensitivity. The incubation period chosen for the test is correspondingly longer (e.g. 16 hours).

T1 sequence (P39900 106-470): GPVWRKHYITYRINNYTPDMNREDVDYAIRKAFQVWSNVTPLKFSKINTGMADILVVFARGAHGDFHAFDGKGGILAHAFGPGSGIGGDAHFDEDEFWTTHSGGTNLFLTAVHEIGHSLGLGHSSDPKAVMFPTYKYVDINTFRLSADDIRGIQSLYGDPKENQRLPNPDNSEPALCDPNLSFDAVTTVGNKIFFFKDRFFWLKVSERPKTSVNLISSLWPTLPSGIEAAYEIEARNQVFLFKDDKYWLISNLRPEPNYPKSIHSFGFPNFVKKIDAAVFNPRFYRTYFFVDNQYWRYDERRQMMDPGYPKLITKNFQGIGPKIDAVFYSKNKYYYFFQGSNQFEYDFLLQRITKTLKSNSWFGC

| IC50 | SMILES |
| --- | --- |
| 0.58 nM | NC(=O)c1cccc(COc2ccc3c(C(=O)CC(CCn4nnc5ccccc5c4=O)C(=O)O)noc3c2)c1 (racemic) [Example 139, (+/−)-4-{6-[(3-Carbamoylbenzyl)oxy]-1,2-benzoxazol-3-yl}-4-oxo-2-[2-(4-oxo-1,2,3-benzotriazin-3(4H)-yl)ethyl]butanoic acid] |
| 0.12 nM | O=C(CC(CCn1nnc2ccccc2c1=O)C(=O)O)c1noc2cc(OCCC3CCCCC3)ccc12 (racemic) [Example 141, (+/−)-4-[6-(2-Cyclohexylethoxy)-1,2-benzoxazol-3-yl]-4-oxo-2-[2-(4-oxo-1,2,3-benzotriazin-3(4H)-yl)ethyl]butanoic acid] |
| 1.1 nM | O=C(CC(CCn1nnc2ccccc2c1=O)C(=O)O)c1noc2cc(OCc3cccc(Cl)c3)ccc12 (racemic) [Example 146, (+/−)-4-{6-[(3-Chlorobenzyl)oxy]-1,2-benzoxazol-3-yl}-4-oxo-2-[2-(4-oxo-1,2,3-benzotriazin-3(4H)-yl)ethyl]butanoic acid] |
| 1.7 nM | O=C(CC(CCn1nnc2ccccc2c1=O)C(=O)O)c1noc2cc(OCc3ccc(Cl)cc3)ccc12 (racemic) [Example 147, (+/−)-4-{6-[(4-Chlorobenzyl)oxy]-1,2-benzoxazol-3-yl}-4-oxo-2-[2-(4-oxo-1,2,3-benzotriazin-3(4H)-yl)ethyl]butanoic acid] |
| 0.58 nM | O=C(CC(CCn1nnc2ccccc2c1=O)C(=O)O)c1noc2cc(OCCC3CCOCC3)ccc12 (racemic) [Example 149, (+/−)-4-Oxo-2-[2-(4-oxo-1,2,3-benzotriazin-3(4H)-yl)ethyl]-4-{6-[2-(tetrahydro-2H-pyran-4-yl)ethoxy]-1,2-benzoxazol-3-yl}butanoic acid] |
| 0.27 nM | O=C(CC(CCn1nnc2ccccc2c1=O)C(=O)O)c1noc2cc(OCCC3CCCC3)ccc12 (racemic) [Example 151, (+/−)-4-[6-(2-Cyclopentylethoxy)-1,2-benzoxazol-3-yl]-4-oxo-2-[2-(4-oxo-1,2,3-benzotriazin-3(4H)-yl)ethyl]butanoic acid] |
| 1.4 nM | O=C(CC(CCn1nnc2ccccc2c1=O)C(=O)O)c1noc2cc(OCC3CCCC3)ccc12 (racemic) [Example 152, (+/−)-4-[6-(Cyclopentylmethoxy)-1,2-benzoxazol-3-yl]-4-oxo-2-[2-(4-oxo-1,2,3-benzotriazin-3(4H)-yl)ethyl]butanoic acid] |
| 980 nM | CCCOc1ccc2cc(C(=O)CC(CCn3nnc4ccccc4c3=O)C(=O)O)oc2c1 (single isomer, unassigned) [Example 59, 4-Oxo-2-[2-(4-oxo-1,2,3-benzotriazin-3(4H)-yl)ethyl]-4-(6-propoxy-1-benzofur-2-yl)butanoic acid] |
| 1.8 nM | CCCOc1ccc2cc(C(=O)CC(CCn3nnc4ccccc4c3=O)C(=O)O)oc2c1 (single isomer, unassigned) [Example 60, 4-Oxo-2-[2-(4-oxo-1,2,3-benzotriazin-3(4H)-yl)ethyl]-4-(6-propoxy-1-benzofur-2-yl)butanoic acid] |
| 81 nM | CCCCCOc1ccc2c(C(=O)CC(CCn3nnc4ccccc4c3=O)C(=O)O)coc2c1 (single isomer, unassigned) [Example 90, 4-Oxo-2-[2-(4-oxo-1,2,3-benzotriazin-3(4H)-yl)ethyl]-4-[6-(pentyloxy)-1-benzofur-3-yl]butanoic acid] |
| 97 nM | O=C(CC(CCn1nnc2ccccc2c1=O)C(=O)O)c1coc2cc(OCc3ccc(Cl)c(Cl)c3)ccc12 (single isomer, unassigned) [Example 93, 4-{6-[(3,4-Dichlorobenzyl)oxy]-1-benzofur-3-yl}-4-oxo-2-[2-(4-oxo-1,2,3-benzotriazin-3(4H)-yl)ethyl]butanoic acid] |
| 0.19 nM | O=C(CC(CCn1nnc2ccccc2c1=O)C(=O)O)c1cc2cc(OCc3ccc(Cl)c(Cl)c3)ccc2o1 (single isomer, unassigned; (+)) [Example 27, (+)-4-{5-[(3,4-Dichlorobenzyl)oxy]-1-benzofur-2-yl}-4-oxo-2-[2-(4-oxo-1,2,3-benzotriazin-3(4H)-yl)ethyl]butanoic acid] |
